Results as given in patent publication US8242085B2, “Tetrahydrofuro [3,4-D] dioxolane compounds for use in the treatment of viral infections and cancer” (BioCryst Pharmaceuticals, Inc., priority 2007, dated 2012).

Experiment: in vivo test of prodrug hydrolysis to active compound
Conditions: tested in vivo

## C[C@@]12OC(c3ccc(Cl)cc3)O[C@@H]1[C@@H](CO)O[C@H]2c1coc2c(N)ncnc12 (stereo partly drawn) [Example 1, ((3aR,4R,6S,6aS)-6-(4-Aminofuro[3,2-d]pyrimidin-7-yl)-2-(4-chlorophenyl)-6a-methyltetrahydrofuro[3,4-d][1,3]dioxol-4-yl)methanol]
  hydrolysis of prodrug in vivo: hydrolyzes in vivo to provide an active compound
